From patent US8703797B2, “Condensed ring pyridine compounds as subtype-selective modulators of sphingosine-1-phosphate-2 (S1P2) receptors” (Allergan, Inc., priority 2009, dated 2014) come the findings set out here.

The term EC50 denotes the concentration at which the effect is half-maximal.

For assay [1], the target named is T1, S1P2 (Homo sapiens, UniProt O95136). Description: S1P2 values marked (33P S1P). Particulars: value marked (33P S1P). It counts as binding.
The target of assay [2] is T2, S1P3 (Homo sapiens, UniProt Q99500).
T2 construct: expressed in transfected cells
T2 sequence (Q99500 whole entry, species assumed): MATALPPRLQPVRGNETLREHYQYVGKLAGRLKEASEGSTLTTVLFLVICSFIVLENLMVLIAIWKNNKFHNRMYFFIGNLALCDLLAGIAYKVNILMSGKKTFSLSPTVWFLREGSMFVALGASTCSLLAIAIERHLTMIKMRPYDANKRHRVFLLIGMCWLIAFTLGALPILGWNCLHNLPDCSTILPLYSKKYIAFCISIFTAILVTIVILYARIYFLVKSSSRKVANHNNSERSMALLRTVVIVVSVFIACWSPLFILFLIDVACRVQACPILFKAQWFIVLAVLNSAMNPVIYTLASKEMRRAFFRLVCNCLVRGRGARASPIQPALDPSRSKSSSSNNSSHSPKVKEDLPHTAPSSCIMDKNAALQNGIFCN
Put plainly: FLIPR calcium assay, cells expressing S1P3 and a G-protein. The format is cell-based. As to the method: (§1) After removal of excess dye by washing, the cells are placed in the FLIPR TETRA instrument. Baseline fluorescence readings are taken prior to addition the compound to be tested. Agonists will trigger the receptor to interact with the G-protein, leading to an increase in intracellular calcium. The increase in intracellular calcium causes an increase in the fluorescence of the cells, due to the presence of fluo-4. This fluorescence increase is recorded by the FLIPR TETRA. After the calcium transient signal has decreased towards baseline, the standard agonist sphingosine 1-phosphate is added. If the test compound is an antagonist, an initial calcium signal will not be generated and the antagonist will prevent the generation of a calcium signal from sphingosine 1-phosphate.

In assay [3] the target is T3, S1P1 (Homo sapiens, UniProt P21453).
T3 construct: expressed in transfected cells
T3 sequence (P21453 whole entry, species assumed): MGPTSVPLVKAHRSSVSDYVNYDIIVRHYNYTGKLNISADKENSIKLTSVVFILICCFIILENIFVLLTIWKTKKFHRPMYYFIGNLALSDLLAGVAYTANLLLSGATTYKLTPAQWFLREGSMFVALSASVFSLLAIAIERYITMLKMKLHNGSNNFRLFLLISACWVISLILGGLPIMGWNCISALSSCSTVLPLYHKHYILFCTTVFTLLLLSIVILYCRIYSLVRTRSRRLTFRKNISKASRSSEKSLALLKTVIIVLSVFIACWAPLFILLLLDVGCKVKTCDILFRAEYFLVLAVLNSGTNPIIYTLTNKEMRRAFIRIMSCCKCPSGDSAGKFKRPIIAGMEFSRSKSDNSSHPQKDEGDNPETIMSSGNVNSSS
Description: FLIPR calcium assay, cells expressing S1P1 and a G-protein. The format is cell-based. On the procedure: as §1

In assay [4] the target is T1, S1P2. Description: FLIPR calcium assay, cells expressing S1P2 and a G-protein. The format is cell-based. The conditions noted are these: for FLIPR (% Antagonism) S1P2: antagonism versus sphingosine 1-phosphate. On the procedure: as §1

SMILES strings stand for the structures. Where only a bound is given, the exact number is not on record here.

T1 sequence (O95136 whole entry, species assumed): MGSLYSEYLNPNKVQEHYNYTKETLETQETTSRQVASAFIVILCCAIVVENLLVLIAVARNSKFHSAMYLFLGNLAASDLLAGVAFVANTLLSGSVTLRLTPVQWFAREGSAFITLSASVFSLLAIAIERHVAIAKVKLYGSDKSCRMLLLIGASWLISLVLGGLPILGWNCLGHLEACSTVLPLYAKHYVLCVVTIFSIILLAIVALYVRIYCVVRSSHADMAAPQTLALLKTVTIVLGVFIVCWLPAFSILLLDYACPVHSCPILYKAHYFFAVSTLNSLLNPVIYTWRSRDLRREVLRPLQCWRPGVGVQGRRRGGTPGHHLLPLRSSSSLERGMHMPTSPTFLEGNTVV

On to `Cc1nn(C)c2c(C(C)C)cc(NNC(=O)Nc3cc(Cl)cc(Cl)c3)nc12` [Example 1, N-(3,5-dichlorophenyl)-2-(7-isopropyl-1,3-dimethyl-1H-pyrazolo[4,3-b]pyridin-5-yl)hydrazinecarboxamide], for which the EC50 was 2.9 nM in assay [1], more than 8300 nM in assay [2], more than 8300 nM in assay [3] and 47 nM in assay [4]. Further, the “FLIPR (% Antagonism) S1P2” value in assay [4] is listed as “(96) %”.
Take `Cc1nn(C)c2c(C(C)C)cc(CNC(=O)Nc3cc(Cl)nc(Cl)c3)nc12` [Example 2, 1-(2,6-dichloropyridin-4-yl)-3-((7-isopropyl-1,3-dimethyl-1H-pyrazolo[4,3-b]pyridin-5-yl)methyl)urea]: the EC50 in assay [1] is 23.8 nM; in assay [2] it was more than 8300 nM; in assay [3], more than 8300 nM; in assay [4], 118 nM. In addition, the “FLIPR (% Antagonism) S1P2” value in assay [4] is “(91) %”.
Take `CCCCc1cc(NC(=O)NNc2cc(C(C)C)c3c(n2)c(C)nn3C)cc(Cl)n1` [Example 3, N-(2-butyl-6-chloropyridin-4-yl)-2-(7-isopropyl-1,3-dimethyl-1H-pyrazolo[4,3-b]pyridin-5-yl)hydrazinecarboxamide]: the EC50 in assay [1] was 5.7 nM; in assay [2], more than 8300 nM; in assay [3], more than 8300 nM; in assay [4], 8 nM. For the same compound, the “FLIPR (% Antagonism) S1P2” value in assay [4] is recorded as “(99) %”.
Regarding `Cc1nn(C)c2c(C)cc(CNC(=O)Nc3cc(Cl)cc(Cl)c3)nc12` [Example 5, 1-(3,5-dichlorophenyl)-3-((1,3,7-trimethyl-1H-pyrazolo[4,3-b]pyridin-5-yl)methyl)urea], the figures for the EC50 in assay [2], in assay [3] and in assay [4] were more than 8300 nM, more than 8300 nM and 135 nM, respectively. Further, in assay [4], the “FLIPR (% Antagonism) S1P2” value is “(82) %”.
`Cc1nn(C)c2c(C(C)C)cc(NNC(=O)Nc3cc(Cl)nc(Cl)c3)nc12` [Example 6, N-(2,6-dichloropyridin-4-yl)-2-(7-isopropyl-1,3-dimethyl-1H-pyrazolo[4,3-b]pyridin-5-yl)hydrazinecarboxamide]: the EC50 in assay [1] was 2.2 nM; in assay [2], more than 8300 nM; in assay [3], more than 8300 nM; in assay [4], 11 nM. The “FLIPR (% Antagonism) S1P2” value in assay [4] is given as “(95) %”.
Take `Cc1nn(C)c2c(C(C)C)cc(NNC(=O)Nc3cc(C(F)(F)F)cc(C(F)(F)F)c3)nc12` [Example 7, N-(3,5-bis(trifluoromethyl)phenyl)-2-(7-isopropyl-1,3-dimethyl-1H-pyrazolo[4,3-b]pyridin-5-yl)hydrazinecarboxamide]: the EC50 is more than 8300 nM in assay [2], more than 8300 nM in assay [3] and 196 nM in assay [4]. Besides, the “FLIPR (% Antagonism) S1P2” value in assay [4] is given as “(98) %”.
As for `Cc1nn(C)c2c(C(C)C)cc(CNC(=O)Nc3cc(Cl)cc(Cl)c3)nc12` [Example 9], the EC50 is 26.4 nM in assay [1], more than 8300 nM in assay [2], more than 8300 nM in assay [3] and 149 nM in assay [4]. In addition, the “FLIPR (% Antagonism) S1P2” value in assay [4] is on record as “(52) %”.
Consider `COc1cc(NC(=O)NCc2cc(C(C)C)c3c(n2)c(C)nn3C)cc(Cl)n1` [Example 10, 1-(2-chloro-6-methoxypyridin-4-yl)-3-((7-isopropyl-1,3-dimethyl-1H-pyrazolo[4,3-b]pyridin-5-yl)methyl)urea], for which the EC50 was 9.9 nM in assay [1], more than 8300 nM in assay [2], more than 8300 nM in assay [3] and 58 nM in assay [4]. In addition, the “FLIPR (% Antagonism) S1P2” value in assay [4] was “(98) %”.
For `CCCc1cc(NC(=O)NNc2cc(C(C)C)c3c(n2)c(C)nn3C)cc(Cl)n1` [Example 11, N-(2-chloro-6-propylpyridin-4-yl)-2-(7-isopropyl-1,3-dimethyl-1H-pyrazolo[4,3-b]pyridin-5-yl)hydrazinecarboxamide], the EC50 was 5 nM in assay [1], more than 8300 nM in assay [2], more than 8300 nM in assay [3] and 9 nM in assay [4]. Besides, in assay [4], the “FLIPR (% Antagonism) S1P2” value was “(98) %”.
In the case of `CCCc1cc(NC(=O)NCc2cc(C(C)C)c3c(n2)c(C)nn3C)cc(Cl)n1` [Example 12, 1-(2-chloro-6-propylpyridin-4-yl)-3-((7-isopropyl-1,3-dimethyl-1H-pyrazolo[4,3-b]pyridin-5-yl)methyl)urea], the EC50 was 2.1 nM in assay [1], more than 8300 nM in assay [2], more than 8300 nM in assay [3] and 24 nM in assay [4]. Further, the “FLIPR (% Antagonism) S1P2” value in assay [4] is listed as “(99) %”.
As to `CC(C)c1cc(NNC(=O)Nc2cc(Cl)cc(Cl)c2)nc2ccccc12` [Example 23, N-(3,5-dichlorophenyl)-2-(4-isopropylquinolin-2-yl)hydrazinecarboxamide], the EC50 in assay [1] is 188 nM; in assay [2], more than 8300 nM; in assay [3], more than 8300 nM.
In the case of `Cc1cc(NNC(=O)Nc2cc(Cl)nc(Cl)c2)nc2c(C)cccc12` [Example 24, N-(2,6-dichloropyridin-4-yl)-2-(4,8-dimethylquinolin-2-yl)hydrazinecarboxamide], the EC50 in assay [1] was 390 nM; in assay [2] it was more than 8300 nM; in assay [3], more than 8300 nM.
Take `Cc1cc(NNC(=O)Nc2cc(Cl)cc(Cl)c2)nc2c(C)cccc12` [Example 25, N-(3,5-dichlorophenyl)-2-(4,8-dimethylquinolin-2-yl)hydrazinecarboxamide]: the EC50 in assay [1] is 451 nM; in assay [2], more than 8300 nM; in assay [3] it was more than 8300 nM.
Consider `Cc1cc(NNC(=O)Nc2cc(Cl)nc(Cl)c2)nc2ccccc12` [Example 26, N-(2,6-dichloropyridin-4-yl)-2-(4-methylquinolin-2-yl)hydrazinecarboxamide], for which the 50% effective concentration (EC50) is 196 nM in assay [1], more than 8300 nM in assay [2] and more than 8300 nM in assay [3].
Consider `Cc1ccc(C)c2c(C)cc(NNC(=O)Nc3cc(Cl)cc(Cl)c3)nc12` [Example 27, N-(3,5-dichlorophenyl)-2-(4,5,8-trimethylquinolin-2-yl)hydrazinecarboxamide], for which the EC50 was 386 nM in assay [1], more than 8300 nM in assay [2] and more than 8300 nM in assay [3].
